Counter-ions that a name gives are not always drawn.

These results are taken from US5166146A, “Amino acid cyclopentanophenonthrene compounds” (Roussel Uclaf, priority 1989, dated 1992).

Assay [1] concerns the target T1, Glucocorticoid receptor of rat's thymus (Rattus norvegicus, UniProt P06536).
T1 construct: The thymuses were removed and homogenized at 0° C; from tissue; host or cells: thymus cytosol (105,000 g supernatant) of adrenalectomized male rats
T1 sequence (P06536 1-795): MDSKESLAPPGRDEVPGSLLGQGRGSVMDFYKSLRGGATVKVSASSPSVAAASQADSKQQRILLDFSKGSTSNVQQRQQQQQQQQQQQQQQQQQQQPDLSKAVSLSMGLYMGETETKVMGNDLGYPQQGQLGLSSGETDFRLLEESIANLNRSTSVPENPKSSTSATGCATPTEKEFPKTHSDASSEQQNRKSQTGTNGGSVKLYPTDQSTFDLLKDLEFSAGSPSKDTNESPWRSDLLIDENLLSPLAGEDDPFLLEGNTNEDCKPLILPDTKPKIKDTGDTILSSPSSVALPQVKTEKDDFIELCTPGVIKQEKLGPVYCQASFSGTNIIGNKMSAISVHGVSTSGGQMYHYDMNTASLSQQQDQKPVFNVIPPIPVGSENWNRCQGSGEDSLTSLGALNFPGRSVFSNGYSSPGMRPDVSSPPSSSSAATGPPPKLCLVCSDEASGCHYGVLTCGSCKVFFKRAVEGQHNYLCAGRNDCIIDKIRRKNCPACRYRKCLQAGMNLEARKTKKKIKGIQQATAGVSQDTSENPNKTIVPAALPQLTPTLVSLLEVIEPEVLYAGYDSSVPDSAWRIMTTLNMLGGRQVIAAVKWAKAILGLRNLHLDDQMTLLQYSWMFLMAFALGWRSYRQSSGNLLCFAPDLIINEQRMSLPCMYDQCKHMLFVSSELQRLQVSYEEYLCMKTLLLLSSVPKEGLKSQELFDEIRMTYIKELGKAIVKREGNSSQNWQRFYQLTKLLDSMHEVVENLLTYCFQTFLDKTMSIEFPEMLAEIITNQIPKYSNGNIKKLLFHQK
As to the kind of experiment: Relative bond affinity, glucocorticoid receptor of rat's thymus (tritiated dexamethasone displacement). To be noted: dexamethasone = 100. It is filed as binding. On the procedure: Male rats weighing 160 to 200 g were suprarenalectomized and 4 to 8 days after this removal, the animals were killed. The thymuses were removed and homogenized at 0° C. using a Potter teflon-flask in a (TSD) 10 mM Tris, 0.25M saccharose, 2mM dithiothreitol, HCl, pH 7.4 buffer (1 g of tissue per 10 ml of TSD). The homogenate was ultracentrifuged at 105,000 g×90 mn at 0° C. and aliquots of the supernatant or "cystosol" were incubated at 0° C. for 4 hours and 24 hours with constant concentration (T=2.5 nM) of tritiated dexamethasone in the presence of increasing concentrations (0-2,500 nM) of cold dexamethasone or of the cold product under test. The concentration of the bonded tritiated dexamethasone (B) was then measured in each incubate by the technique of adsorption with carbon-dextran.
(§1) The calculation of the relative bond affinity (RBA) was identical for all receptors. […]
(§2) The straight line of the equation: [formula] was determined. […]
(§3) The intersections of the straight line I50 and the curves allow the evaluation of the concentrations of the cold reference hormone (CH) and of the cold product under test (CX) which inhibit by 50% the bonding of the tritiated hormone on the receptor. The relative bond affinity (RBA) of the product under test was determined by the equation RBA=100 (CH)/(CX)

For assay [2], the target named is T2, Androgen receptor of rat's prostate (Rattus norvegicus, UniProt P15207).
T2 construct: The prostates were removed, weighed and homogenized at 0° C; from tissue; host or cells: prostate cytosol (105,000 g supernatant) of castrated male rats
T2 sequence (P15207 1-902): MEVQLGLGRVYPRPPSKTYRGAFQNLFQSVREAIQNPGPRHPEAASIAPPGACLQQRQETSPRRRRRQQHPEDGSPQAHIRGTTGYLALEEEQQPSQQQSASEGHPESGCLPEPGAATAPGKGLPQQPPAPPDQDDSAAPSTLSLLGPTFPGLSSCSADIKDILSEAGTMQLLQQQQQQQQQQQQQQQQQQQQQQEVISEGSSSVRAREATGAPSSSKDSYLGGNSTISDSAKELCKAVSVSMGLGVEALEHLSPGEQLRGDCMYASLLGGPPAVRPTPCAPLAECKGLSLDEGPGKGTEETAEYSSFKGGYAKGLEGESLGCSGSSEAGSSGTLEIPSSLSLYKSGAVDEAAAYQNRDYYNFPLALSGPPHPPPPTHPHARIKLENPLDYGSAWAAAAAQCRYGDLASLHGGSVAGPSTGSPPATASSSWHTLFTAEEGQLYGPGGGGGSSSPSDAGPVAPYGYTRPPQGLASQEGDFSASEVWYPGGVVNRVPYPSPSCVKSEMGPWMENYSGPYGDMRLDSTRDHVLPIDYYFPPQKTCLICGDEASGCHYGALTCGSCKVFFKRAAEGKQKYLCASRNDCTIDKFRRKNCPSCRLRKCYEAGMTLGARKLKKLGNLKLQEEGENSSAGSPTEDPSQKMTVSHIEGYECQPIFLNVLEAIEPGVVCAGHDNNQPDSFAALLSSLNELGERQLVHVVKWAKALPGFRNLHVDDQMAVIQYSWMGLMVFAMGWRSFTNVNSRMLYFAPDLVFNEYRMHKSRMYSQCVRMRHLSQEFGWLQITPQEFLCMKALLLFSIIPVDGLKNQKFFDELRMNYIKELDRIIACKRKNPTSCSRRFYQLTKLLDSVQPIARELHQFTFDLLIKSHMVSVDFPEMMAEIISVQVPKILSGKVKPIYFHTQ
As to the kind of experiment: Relative bond affinity, androgen receptor of rat's prostate (tritiated testosterone displacement). It is filed as binding. The settings on record: testosterone = 100. As for the experimental part: Male rats weighing of 160 to 200 g were castrated and 24 hours after the castration, the animals were killed. The prostates were removed, weighed and homogenized at 0° C. using a Potter Teflon-flask in a (TSDPM) 10 mM Tris, 0.25 M saccharose, 0.1 mM phenyl methane sulfonyl fluoride, 20 mM molybdate, 2mM dithiothreitol, HCl pH 7.4 buffer (1 g of tissue per 5 ml of TSDPM). The homogenate was ultracentrifuged at 105,000 g×60 mn at 0° C. and aliquots of the supernatant or "cytosol" were incubated at 0° C. with a constant concentration of tritiated testosterone in the presence of increasing concentrations (0-1000 nM) of cold testosterone or of the product under test. […]
as §1, §2, §3

The target in assay [3] is T3, Progesterone receptor of rabbit's uterus (Oryctolagus cuniculus, UniProt P06186).
T3 construct: The uteruses were removed, weighed and homogenised at 0° C; from tissue; host or cells: uterus cytosol (105,000 g supernatant) of estradiol-primed impuberal female rabbits
T3 sequence (P06186 1-930): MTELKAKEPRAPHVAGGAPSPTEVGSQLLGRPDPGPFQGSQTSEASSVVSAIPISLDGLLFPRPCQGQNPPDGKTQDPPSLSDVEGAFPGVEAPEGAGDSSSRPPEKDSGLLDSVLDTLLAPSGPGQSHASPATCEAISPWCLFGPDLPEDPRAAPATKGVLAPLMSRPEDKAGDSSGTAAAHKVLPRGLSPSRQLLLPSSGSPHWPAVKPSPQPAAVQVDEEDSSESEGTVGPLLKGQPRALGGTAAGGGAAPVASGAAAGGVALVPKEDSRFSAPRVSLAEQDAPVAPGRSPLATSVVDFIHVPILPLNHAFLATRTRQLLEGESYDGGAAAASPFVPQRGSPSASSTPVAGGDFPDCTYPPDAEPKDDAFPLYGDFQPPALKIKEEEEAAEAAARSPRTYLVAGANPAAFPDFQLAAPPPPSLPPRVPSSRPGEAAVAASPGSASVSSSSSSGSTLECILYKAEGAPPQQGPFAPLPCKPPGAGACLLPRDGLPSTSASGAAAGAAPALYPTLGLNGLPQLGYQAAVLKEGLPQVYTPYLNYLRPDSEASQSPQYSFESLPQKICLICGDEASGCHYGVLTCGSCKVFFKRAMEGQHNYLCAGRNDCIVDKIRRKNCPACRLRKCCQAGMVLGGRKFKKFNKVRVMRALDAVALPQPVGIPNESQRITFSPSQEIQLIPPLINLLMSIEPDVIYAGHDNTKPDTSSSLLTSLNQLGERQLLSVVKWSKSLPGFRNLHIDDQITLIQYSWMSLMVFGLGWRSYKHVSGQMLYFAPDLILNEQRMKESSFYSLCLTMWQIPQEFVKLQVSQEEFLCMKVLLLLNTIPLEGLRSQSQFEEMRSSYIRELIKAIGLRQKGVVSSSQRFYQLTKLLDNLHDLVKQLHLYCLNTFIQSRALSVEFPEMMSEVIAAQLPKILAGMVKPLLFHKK
As to the kind of experiment: Relative bond affinity, progesterone receptor of rabbit's uterus (tritiated R 5020 displacement). It is filed as binding. The settings on record: progesterone = 100. As for the experimental part: Impuberal female rabbits weighing about 1 kg received a cutaneous application of 25 μg of estradiol and five days after this treatment, the animals were killed. The uteruses were removed, weighed and homogenised at 0° C. using a Potter teflon-flask ina (TS) 10 mM Tris, 0.25M saccharose, HCl pH 7.4 buffer (1 g of tissue per 50 ml of TS). The homogenate was ultra-centrifuged at 105,000 g×90 mn at 0° C. and aliquots of the supernatant or "cytosol", were incubated at 0° C. for 2 hours and 24 hours with a constant concentration (T=5 nm) of tritiated R 5020 (17,21-dimethyl-19-nor-Δ^4,9 -pregnadien-3, 20-dione, strongly progrestomimetic mimetic having a great affinity for the progesterone receptor), in the presence of increasing concentrations (0-2500 nM) of cold progesterone, or of the product under test. The concentration of bonded tritiated R 5020 (B) was measured in each incubate by the technique of adsorption with carbon-dextran. […]
as §2, §3

The next assay deals with rat thymocytes. As to the kind of experiment: Anti-glucocorticoid activity vis-a-vis dexamethasone: incorporation of uridine in rat thymocytes. It counts as cell-based. The source says:
Glucocorticoids cause an inhibition of the incorporation of nucleosides in lymphoid tissue and the measurement of the incorporation of radio-active uridine in the thymocytes in the presence of a product under test allows its glucocorticoid activity to be evaluated.
In accordance with the technique described by Dausse et al (3), the thymus of a suprarenalectomized rat weighing 160 to 180 g was removed, shredded and homogenized slowly using a teflon-flask homogenizer in Hanks solution. The cellular suspension was filtered on gauze, then centrifuged at 800 g×10 mn. A new centrifugation was carried out at 800 g×10 mm and the deposit was suspended in a nutritive medium (M.E.M. Gibco). The cellular concentration was adjusted to approximately 20×10^6 cells per ml and aliquots of 250 μl were incubated under carbogen for 3 hours at 37° C. with 5×10^-8 M of dexamethasone in the presence or not of increasing concentrations of product (10^-8 to 10^-6 M). 0.1 uCi of tritiated uridine was added to each incubate and the incubation was continued for one hour. The incubates were cooled and 1 ml of a cold solution of trichloroacetic acid (TCA) at 5% weight/volume was added. […] The radioactivity retained on the filters (representing the tritiated uridine incorporated in the thymocytes) was measured using a liquid scintillation spectrometer.

For `CC#C[C@]1(O)CC[C@H]2[C@@H]3CCC4=CC(=O)CCC4=C3[C@@H](c3ccc(N(C)CC(=O)O)cc3)C[C@@]21C` [Example 1, Sodium salt of [[4-[17α-(1-propynyl)-Δ^4,9-estradien-17β-ol-3-one-11 β-yl]-phenyl]-methylamino]-acetic acid], in assay [1] (incubation 4 hours at 0° C.), the “relative bond affinity (RBA) Glucocorticoid 4H” value is 101. For the same compound, the “relative bond affinity (RBA) Glucocorticoid 24H” value in assay [1] (incubation 24 hours at 0° C.) is on record as 129. The “relative bond affinity (RBA) Androgen” value in assay [2] (incubation (so in the source) at 0° C.) was 10,1. The “relative bond affinity (RBA) Androgen 0,5H” value in assay [2] (incubation half an hour at 0° C.) is 2,1. Also, the “relative bond affinity (RBA) Progesterone 2H” value in assay [3] (incubation 2 hours at 0° C.) is 22. Also, the “relative bond affinity (RBA) Progesterone 24H” value in assay [3] (incubation 24 hours at 0° C.) was 107. For the same compound, the “anti-glucocorticoid activity (statement in words)” value in the assay with rat thymocytes was “good anti-glucocorticoid activity”.
